Data reported in patent US20240117431A1, “STEM-CELL BASED BIOMARKER DISCOVERY” (THE REGENTS OF THE UNIVERSITY OF CALIFORNIA, priority 2020, published 2024).

Tests used:
Type in all cases: cell-based
(−)TgUPRT HEK cells = assay: Background incorporation of uracil analogs into RNA, streptavidin-HRP dot blot; conditions: for incorporation into RNA at higher concentration: 1 mM, mimics in vivo applications, FIG. 4
Experimental: (§1) Transfection, labeling of cellular RNA and RNA isolation: After 48h seeding, HEK293 cells were transfected with 2.5 μg of TgUPRT WT or mutant plasmids (pKN-CMV-TgUPRT-WT or -Mutt to Mut17) per 5 cm plate using JetPrime Transfection reagent (Polyplus Transfection, France). At 40h post-transfection, cells were incubated with a final concentration of 200 μM at <1% DMSO from 400 mM stock of uracil analogs (5EU, 5VU, 5AU) or 200 mM SAMU stock for 5 h. For time course study, HEK cells were treated with 200 μM uracil analogs for 0 h, 0.5, 1, 3, 5, 12 and 24 hours. For titrating uracil analog concentration experiments, HEK cells were treated with 0 (DMSO), 50, 100, 200, 500 μM or 1 mM uracil analog for 5h. Treated HEK cells were subjected to total RNA extraction using 1 mL Trizol Reagent (Invitrogen) following the manufacturer instructions.
(§2) Biotinylation via CuAAC and IEDDA: Cu-mediated Azide-Alkyne cycloaddition (CuAAC) click reactions were performed in 50 μL reaction at 22° C. on a shaker for 30 min with click reaction cocktail containing 15 μg of total RNA, 1 mM biotin alkyne or biotin azide, fresh 4.6 mM THPTA to a final concentration of 1 mM, and fresh 10.6 mM sodium ascorbate (NaAsc) at final concentration of 1.77 mM, and 12 mM CuSO4 at final concentration of 200 μM in biotinylation reaction buffer (10 mM TrisHCI, 1 mM EDTA, pH7.4). The biotinylated RNA was purified using RNA clean & Concentrator-5 kit (Zymo Research, Cat #R1013) according to the manufacturer instructions and eluted in 21 μL of nuclease free water.
(§3) Inverse electron demand [4+2] Diels-Alder cycloaddition (IEDDA) click reactions were performed in 50 μL at 37° C. or 22° C. (RT) for 3h on mixer at 500 rpm containing 10-15 μg of total RNA, 1 mM final concentration of biotin-benzyl tetrazine (Sigma Aldrich, Cat #793329-5MG) in nuclease free water. Clicked total RNA was purified using RNA clean & Concentrator-5 kit (Zymo Research, Cat #R1013) according to the manufacturer instructions, and RNA was eluted in 21 μL of nuclease free water.
HRP-streptavidin dot blot analysis: All gel reagents were from Bio-Rad. For dot blot analysis, 2 μg of clicked total RNA was applied onto Hybond-N+ membrane (GE Healthcare) as individual dots and UV-crosslinked (254 nm) to a membrane (Stratalinker UV crosslinker). Membranes were blocked in blocking buffer (0.12 M NaCl, 0.016 M Na2HPO4, 0.008 M NaH2PO4, 0.17 M SDS) and followed by incubation with high sensitivity streptavidin-HRP (Fisher Scientific, Cat #: P121130) at 1:5000 dilution in blocking buffer for 5 minutes. The membrane was washed twice in a Wash A buffer (1:10 dilution of blocking buffer) and twice in Wash B buffer (Tris-saline buffer). […]

[1] = target: T1, wild-type (WT) TgUPRT in HEK cells (Toxoplasma gondii, UniProt Q26998); assay: In-cell RNA incorporation by wild-type TgUPRT, streptavidin dot blot
T1 construct: 6xHis; expressed in transfected cells; host or cells: HEK293 (HEK293T)
Experimental: as §1, §2, §3
HRP-streptavidin dot blot analysis: All gel reagents were from Bio-Rad. […]

[2] = tested on: co-culture of mCherry HEK cells and GFP-TgUPRT variant HEK cells; assay: Co-culture specificity, dot blot of biotinylated total RNA (CuAAC or IEDDA); conditions: 5 hours
Experimental: Co-culture of HEK cells containing GFP or mCherry expression plasmids: HEK293 (5×105) cells seeded in 6-well plate. Thirty-six hour post seeding, HEK cells were transfected with 1 μg of single plasmid containing EGFP, mCherry, EGFP-TgUPRT-WT, or EGFP-TgUPRT-Mut. Twenty-four hour post transfection, transiently transfected HEK cells were trypsinized and seeded into a 5 cm plate. Equal amounts of cells (approximately 2×106 in total) where 1×10^6 cells containing GFP or GFP-TgUPRT plasmids and 1×10^6 cells containing mCherry construct) were co-cultured. Three co-culture conditions are Condition (A): mCherry and EGFP, Condition (B): mCherry and EGFP-WT-TgUPRT, and Condition (C): mCherry and EGFP-3×MT-TgUPRT (pKN-CMV-EGFP-TgUPRT-Mut16 or -Mut17). Sixteen hours post seeding, the co-cultures were treated with 5EU and 5VU for 5 hours at 200 μM and 500 μM final concentration, respectively. Cell imaging was performed to assess the overall distribution of green and red cells in each co-culture. Once imaging was done, cells were harvested and subjected to RNA isolation. Total RNA isolated from the co-culture was subjected to biotinylation by two click methods: (1) CuAAC to assess 5EU incorporation in RNA and (2) IEDDA to assess 5VU incorporation in RNA. Subsequently, biotinylated RNA was subjected to dot blot analysis. […]

T1 sequence (Q26998 whole entry): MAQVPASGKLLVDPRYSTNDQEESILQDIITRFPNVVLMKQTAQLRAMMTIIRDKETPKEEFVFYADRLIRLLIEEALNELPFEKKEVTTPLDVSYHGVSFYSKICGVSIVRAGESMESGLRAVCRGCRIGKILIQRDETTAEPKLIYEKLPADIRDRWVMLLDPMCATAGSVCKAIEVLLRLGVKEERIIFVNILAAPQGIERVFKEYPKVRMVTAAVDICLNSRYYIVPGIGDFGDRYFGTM

Structure (SMILES)	incorporation into RNA at higher concentration ((−)TgUPRT HEK cells)	background incorporation into RNA ((−)TgUPRT HEK cells; (−)TgUPRT HEK cells, FIGS. 3A, 3B)	TgUPRT-dependent incorporation into cellular RNA ([1]; wild-type TgUPRT active site)	incorporation into RNA in the absence of TgUPRT (co-culture dot blot) ([2]; 200 μM 5EU with 500 μM 5VU)	analog incorporation over time with wild-type TgUPRT ([1]; 200 μM, long periods of incubation, FIG. 9B)	incorporation into RNA mediated by GFP-3×MT-TgUPRT (co-culture dot blot) ([2]; 500 μM 5VU with 200 μM 5EU)
C#Cc1c[nH]c(=O)[nH]c1=O [compound 1, 5-ethynylpyrimidine-2,4(1H,3H)-dione]	very robust incorporation	low level of background incorporation	capable of such transformations	detectable signal		
C=Cc1c[nH]c(=O)[nH]c1=O [compound 2, 5-Vinylpyrimidine-2,4(1H,3H)-dione]	not observed				did not result in any observed incorporation	substantially
